US20260091043A1, “COMPOSITIONS AND METHODS FOR TREATING MYCOBACTERIUM INFECTIONS” (DATA2DISCOVERY, INC., priority 2022, published 2026)
Where two headings read alike, the source gives them in different places.

Legend:
[1] = tested on: M. abscessus (ATCC Smooth strain); test: M. abscessus (ATCC Smooth strain) resazurin growth inhibition assay; assay type: cell-based, Mycobacterium abscessus; conditions: for IC50 / IC90: Mycobacteroides abscessus; for activity against M. abscessus (in words): summary of table results
[2] = tested on: M. tuberculosis (H37RV strain); test: M. tuberculosis (H37RV strain) resazurin growth inhibition assay; assay type: cell-based, Mycobacterium tuberculosis; conditions: for IC50 / IC90: Mycobacterium tuberculosis; for activity against M. tuberculosis (in words): summary of table results
[3] = M. abscessus ATCC Smooth, 96 well plate, 37° C. 4 days, resazurin, read after 1 day, read-out: IC50
[4] = M. abscessus ATCC Smooth, 96 well plate, 37° C. 4 days, resazurin, read after 1 day, read-out: IC90
[5] = M. tuberculosis H37RV, 96 well plate, 37° C. 4 days, resazurin, read 3 days later, read-out: IC50
[6] = M. tuberculosis H37RV, 96 well plate, 37° C. 4 days, resazurin, read 3 days later, read-out: IC90

| SMILES | IC50 [1] | IC90 [1] | activity against M. abscessus (in words) [1] | IC50 ([2]; H37RV) | IC90 ([2]; H37RV) | activity against M. tuberculosis (in words) [2] | IC50 [1, 3] | IC90 [1, 4] | IC50 [2, 5] | IC90 [2, 6] | activity against M. tuberculosis compared to kanamycin (in words) ([2]; comparison with control kanamycin) |
| --- | --- | --- | --- | --- | --- | --- | --- | --- | --- | --- | --- |
| O=C(Nc1ccc(Br)cc1)c1cc(Br)cc(Br)c1O [Tribromsalan, 3,5,4′-tribromosalicylanilide] | 99.8 µM | 147 µM | significant activity | 67.2 µM | 76.9 µM | significant activity |  |  |  |  |  |
| O=C(Nc1ccc([N+](=O)[O-])cc1Cl)c1cc(Cl)ccc1O [Niclosamide, niclosamide] |  |  | significant activity |  |  | significant activity | 32.2 µM | 59.1 µM | 1.92 µM | 2.95 µM | superior overall to kanamycin |
| NCC[C@H](O)C(=O)N[C@@H]1C[C@H](N)[C@@H](O[C@H]2O[C@H](CN)[C@@H](O)[C@H](O)[C@H]2O)[C@H](O)[C@H]1O[C@H]1O[C@H](CO)[C@@H](O)[C@H](N)[C@H]1O [Amikacin] |  |  |  |  |  |  | 4.78 µM | 7.15 µM |  |  |  |
| NC[C@H]1O[C@H](O[C@H]2[C@H](O)[C@@H](O[C@H]3O[C@H](CO)[C@@H](O)[C@H](N)[C@H]3O)[C@H](N)C[C@@H]2N)[C@H](O)[C@@H](O)[C@@H]1O [Kanamycin] |  |  |  |  |  |  | 12.1 µM | 16.1 µM | 1.06 µM | 4.22 µM |  |
